Legend:
pigweed = experiment: Test B pre/postemergence pigweed; type: in vivo, Amaranthus retroflexus
In short: (§1)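 Test chemicals in a non-phytotoxic solvent mixture with surfactant were sprayed preemergence onto planted seeds and postemergence onto plants 2 to 18 cm tall (1- to 4-leaf stage). After twelve to sixteen days in a greenhouse, injury was visually rated against untreated controls from 0 (no effect) to 10 (complete control).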

rape = experiment: Test B pre/postemergence rape; type: in vivo, Brassica napus
In short: as §1

surinam grass = experiment: Test B pre/postemergence surinam grass; type: in vivo, Brachiaria decumbens
In short: as §1

corn = experiment: Test B pre/postemergence corn; type: in vivo, Zea mays
In short: as §1

wild oat = experiment: Test B pre/postemergence wild oat; type: in vivo, Avena fatua
In short: as §1

crabgrass = experiment: Test B pre/postemergence crabgrass; type: in vivo, Digitaria sanguinalis
In short: as §1

sugar beet = experiment: Test B pre/postemergence sugar beet; type: in vivo, Beta vulgaris
In short: as §1

cocklebur = experiment: Test B pre/postemergence cocklebur; type: in vivo, Xanthium strumarium
In short: as §1

morningglory = experiment: Test B pre/postemergence morningglory; type: in vivo, Ipomoea hederacea
In short: as §1

blackgrass = experiment: Test B pre/postemergence blackgrass; type: in vivo, Alopecurus myosuroides
In short: as §1

soybean = experiment: Test B pre/postemergence soybean; type: in vivo, Glycine max
In short: as §1

wheat = experiment: Test B pre/postemergence wheat; type: in vivo, Triticum aestivum
In short: as §1

giant foxtail = experiment: Test B pre/postemergence giant foxtail; type: in vivo, Setaria faberii
In short: as §1

velvetleaf = experiment: Test B pre/postemergence velvetleaf; type: in vivo, Abutilon theophrasti
In short: as §1

purple nutsedge = experiment: Test B pre/postemergence purple nutsedge; type: in vivo, Cyperus rotundus
In short: as §1

bedstraw = experiment: Test B pre/postemergence bedstraw; type: in vivo, Galium aparine
In short: as §1

[1] = Postemergence, Rate 62 g/ha, scale of 0 to 10, 0 is no effect, 10 is complete control
[2] = Preemergence, Rate 62 g/ha, scale 0 to 10 (0 no effect, 10 complete control)
[3] = Preemergence, Rate 500 g/ha, scale of 0 to 10 where 0 is no effect and 10 is complete control
[4] = Rate 250 g/ha, Postemergence, scale of 0 to 10 where 0 is no effect and 10 is complete control
[5] = Postemergence, Rate 125 g/ha, scale 0 to 10, 0 is no effect, 10 is complete control
[6] = Postemergence, Rate 500 g/ha, scale 0 to 10, 0 is no effect, 10 is complete control
[7] = Preemergence, Rate 125 g/ha, scale 0 to 10, 0 is no effect, 10 is complete control

CC(C)N(C(=O)n1oc(=O)n(CCC(F)(F)F)c1=O)c1ccc(Cl)cc1 [Compound 554]
1: Morningglory plant response rating (morningglory; [1])
7: Plant response rating, Redroot pigweed (pigweed; [4]) | B. signalgrass plant response rating (surinam grass; [2]) | B. signalgrass plant response rating (surinam grass; [7]) | Plant response rating, Sugarbeets (sugar beet; [4]) | Plant response rating, Morningglory (morningglory; [6]) | Blackgrass plant response rating (blackgrass; [3]) | Plant response rating, Blackgrass (blackgrass; [4]) | Plant response rating, Bedstraw (bedstraw; [4])
9: Redroot pigweed plant response rating (pigweed; [2]) | Wild oats plant response rating (wild oat; [3]) | Plant response rating, Crabgrass (crabgrass; [6]) | Crabgrass plant response rating (crabgrass; [2]) | Plant response rating, Crabgrass (crabgrass; [4]) | Giant foxtail plant response rating (giant foxtail; [2]) | Giant foxtail plant response rating (giant foxtail; [7]) | Giant foxtail plant response rating (0 to 10 scale) (giant foxtail; Preemergence, Rate 250 g/ha) | Plant response rating, Bedstraw (bedstraw; [6])
0: Redroot pigweed plant response rating (pigweed; [1]) | Rape plant response rating (rape; [1]) | Rape plant response rating (rape; [5]) | Rape plant response rating (rape; [2]) | Rape plant response rating (rape; [7]) | Rape plant response rating (0 to 10 scale) (rape; Preemergence, Rate 250 g/ha) | Plant response rating, Rape (rape; [4]) | B. signalgrass plant response rating (surinam grass; [1]) | B. signalgrass plant response rating (surinam grass; [5]) | Plant response rating, B. signalgrass (surinam grass; [4]) | Corn plant response rating (corn; [1]) | Corn plant response rating (corn; [5]) | Plant response rating, Corn (corn; [6]) | Corn plant response rating (corn; [2]) | Corn plant response rating (corn; [7]) | Corn plant response rating (0 to 10 scale) (corn; Preemergence, Rate 250 g/ha) | Plant response rating, Corn (corn; [4]) | Wild oats plant response rating (wild oat; [1]) | Wild oats plant response rating (wild oat; [2]) | Crabgrass plant response rating (crabgrass; [1]) | Sugarbeets plant response rating (sugar beet; [1]) | Sugarbeets plant response rating (sugar beet; [2]) | Sugarbeets plant response rating (sugar beet; [7]) | Sugarbeets plant response rating (0 to 10 scale) (sugar beet; Preemergence, Rate 250 g/ha) | Cocklebur plant response rating (cocklebur; [1]) | Cocklebur plant response rating (cocklebur; [5]) | Cocklebur plant response rating (cocklebur; [2]) | Cocklebur plant response rating (cocklebur; [7]) | Cocklebur plant response rating (0 to 10 scale) (cocklebur; Preemergence, Rate 250 g/ha) | Cocklebur plant response rating (cocklebur; [3]) | Plant response rating, Cocklebur (cocklebur; [4]) | Morningglory plant response rating (morningglory; [7]) | Morningglory plant response rating (0 to 10 scale) (morningglory; Preemergence, Rate 250 g/ha) | Morningglory plant response rating (morningglory; [3]) | Blackgrass plant response rating (blackgrass; [1]) | Soybean plant response rating (soybean; [2]) | Soybean plant response rating (soybean; [7]) | Wheat plant response rating (wheat; [1]) | Velvetleaf plant response rating (velvetleaf; [1]) | Plant response rating, Velvetleaf (velvetleaf; [6]) | Velvetleaf plant response rating (velvetleaf; [2]) | Velvetleaf plant response rating (velvetleaf; [7]) | Velvetleaf plant response rating (0 to 10 scale) (velvetleaf; Preemergence, Rate 250 g/ha) | Velvetleaf plant response rating (velvetleaf; [3]) | Plant response rating, Velvetleaf (velvetleaf; [4]) | Nutsedge plant response rating (purple nutsedge; [1]) | Nutsedge plant response rating (purple nutsedge; [5]) | Plant response rating, Nutsedge (purple nutsedge; [6]) | Nutsedge plant response rating (purple nutsedge; [2]) | Nutsedge plant response rating (purple nutsedge; [7]) | Nutsedge plant response rating (0 to 10 scale) (purple nutsedge; Preemergence, Rate 250 g/ha) | Nutsedge plant response rating (purple nutsedge; [3]) | Plant response rating, Nutsedge (purple nutsedge; [4]) | Bedstraw plant response rating (bedstraw; [2]) | Bedstraw plant response rating (bedstraw; [7]) | Bedstraw plant response rating (0 to 10 scale) (bedstraw; Preemergence, Rate 250 g/ha) | Bedstraw plant response rating (bedstraw; [3])
5: Plant response rating, Morningglory (morningglory; [4]) | Bedstraw plant response rating (bedstraw; [1]) | Bedstraw plant response rating (bedstraw; [5])
2: Corn plant response rating (corn; [3]) | Wild oats plant response rating (wild oat; [7]) | Wild oats plant response rating (0 to 10 scale) (wild oat; Preemergence, Rate 250 g/ha) | Plant response rating, Wild oats (wild oat; [4]) | Morningglory plant response rating (morningglory; [5]) | Soybean plant response rating (soybean; [1]) | Plant response rating, Wheat (wheat; [4]) | Giant foxtail plant response rating (giant foxtail; [1])
10: Redroot pigweed plant response rating (pigweed; [3]) | B. signalgrass plant response rating (surinam grass; [3]) | Crabgrass plant response rating (crabgrass; [7]) | Crabgrass plant response rating (crabgrass; [3]) | Giant foxtail plant response rating (giant foxtail; [3])
8: Plant response rating, Giant foxtail (giant foxtail; [6]) | Plant response rating, Giant foxtail (giant foxtail; [4])
4: Blackgrass plant response rating (blackgrass; [7]) | Blackgrass plant response rating (0 to 10 scale) (blackgrass; Preemergence, Rate 250 g/ha)
6: B. signalgrass plant response rating (0 to 10 scale, 0 is no effect, 10 is complete control) (surinam grass; Preemergence, Rate 250 g/ha) | Sugarbeets plant response rating (sugar beet; [3]) | Wheat plant response rating (wheat; [3]) | Giant foxtail plant response rating (giant foxtail; [5])
3: Plant response rating, Rape (rape; [6]) | Rape plant response rating (rape; [3]) | Plant response rating, B. signalgrass (surinam grass; [6]) | Plant response rating, Cocklebur (cocklebur; [6]) | Blackgrass plant response rating (blackgrass; [5]) | Plant response rating, Soybean (soybean; [6]) | Soybean plant response rating (0 to 10 scale) (soybean; Preemergence, Rate 250 g/ha) | Soybean plant response rating (soybean; [3]) | Plant response rating, Soybean (soybean; [4]) | Wheat plant response rating (wheat; [2]) | Wheat plant response rating (wheat; [7])

— US6737383B1, “Herbicidal oxadiazolidines” (priority 1999, dated 2004)
